This test deals with growth hormone (GH) release. Put plainly: In vivo GH release in pentobarbital anesthetized rats (serum GH by RIA). On the set-up: species or system immature female Sprague-Dawley rats. Particulars: Table 4, control GH 181 ± 69. On the procedure:
Immature female Sprague-Dawley rats were obtained from the Charles River Laboratories (Wilmington, Mass.). After arrival they were housed at 25° C. with a 14:10 hour light:dark cycle. Water and Purina rat chow were available ad libitum. Pups were kept with their mothers until 21 days of age.
Twenty-six day old rats, six rats per treatment group, were anesthetized interperitoneally with 50 mg/Kg of pentobarbital 20 minutes prior to i. v. treatment with peptide. Normal saline with 0.1% gelatin was the vehicle for intravenous (i. v.) injections of the peptides. The anesthetized rats, weighing 55-65 grams, were injected i. v. with the quantity of growth hormone releasing compounds indicated in Tables 3 and 4. Injection was made as a 0.2 mL solution into the jugular vein.
All animals were sacrificed by guillotine 10 minutes after the final test injection (see Tables 3 and 4). Trunk blood for the determination of blood GH levels was collected following decapitation. After allowing the blood to clot, it was centrifuged and the serum was separated from the clot. […]
The mixed reagents are then typically incubated at room temperature (about 25° C.) for about 24 hours prior to addition of a second antibody (e.g., goat or rabbit anti-monkey gamma globulin serum) which binds to and causes precipitation of the complexed growth hormone antiserum. Precipitated contents of the RIA tubes are then analyzed for the number of counts in a specified period of time in a gamma scintillation counter. […] GH levels of unknowns are then determined by reference to the standard curve.
Serum GH was measured by RIA with reagents provided by the National Hormone and Pituitary Program.
Serum levels in Tables 3 and 4 are recorded in ng/mL in terms of the rat GH standard of 0.61 International Units/mg (IU/mg). Data is recorded as the mean +/- standard error of the mean (SEM). […]

Consider “His--DCys(SMe)--Ala--Trp--DPhe--Lys--NH2”, for which the “GH Released” value is listed as 193 ± 28 ng/mL (total dose 1.0 μg i.v.), 180 ± 34 ng/mL (total dose 3.0 μg i.v.) and 178 ± 28 ng/mL (total dose .3 μg i.v.).

Values taken from patent publication US5486505A, “Polypeptide compounds having growth hormone releasing activity” (Polygen Holding Corporation, priority 1992, dated 1996).
